A value given as a limit tells only on which side of the number the result lay.

By IC50 is commonly meant the concentration at which inhibition is half-maximal. Read a low IC50 as inhibition by little substance.

A short description of test [1]: Cytotoxicity against human MDA-MB-231 cells after 72 hrs by MTT assay. To be noted: MDA-MB-231, 72 h. The class given is functional, cell-based. A general note: Tetrazolium dyes change colour on reduction, which living cells bring about.
A short description of test [2]: Cytotoxicity against human HepG2 cells after 72 hrs by MTT assay. The format is functional, cell-based. To be noted: HepG2, 72 h.
Test [3] in a line: Cytotoxicity against human A549 cells after 72 hrs by MTT assay. To be noted: A549, 72 h. The class given is functional, cell-based.
A short description of another test: cells. To be noted: Homo sapiens, HCT-116, 72 h.
A short description of test [4]: Cytotoxicity against human U87MG cells after 72 hrs by MTT assay. The class given is functional, cell-based, U-87MG ATCC. To be noted: U-87 MG.

For the compound `O=S(=O)(Nc1cc(-c2ccc3nccc(-c4ccc(Cn5cncn5)cc4)c3c2)cnc1Cl)c1ccc(F)cc1F`, the IC50 in test [1] amounted to 0.34 µM; in test [2] it was 2.04 µM; in test [3], 0.642 µM; in the test “cells” it was 0.036 µM.
As for `CCN(Cc1ccc(-c2ccnc3ccc(-c4cnc(OC)c(NS(=O)(=O)c5ccc(F)cc5F)c4)cc23)cc1)C1CCCCC1`, the IC50 in test [3] came to 0.0202 µM; in test [4], 1.45 µM; in the test “cells”, 0.223 µM.
Take `O=S(=O)(Nc1cc(-c2ccc3nccc(-c4ccc(CN5CCOCC5)cc4)c3c2)cnc1Cl)c1ccc(F)cc1F`: the IC50 is 2.43 µM in test [1], 2.31 µM in test [2], 0.024 µM in test [3] and 0.051 µM in “cells”.
With `COc1ncc(-c2ccc3nccc(-c4ccc(CN(CCO)CCO)cc4)c3c2)cc1NS(=O)(=O)c1ccc(F)cc1F`, the values for the IC50 (in test [3]; in test [4]; in the test “cells”) were 0.0028 µM, 0.143 µM and 0.0038 µM, respectively.
With `COc1ncc(-c2ccc3nccc(-c4ccc(Cn5cccn5)cc4)c3c2)cc1NS(=O)(=O)c1ccc(F)cc1F`, the figures for the IC50 (in test [3]; in test [4]; in the test “cells”) were 0.0308 µM, 1.6 µM and 0.0531 µM, respectively.
On to `COc1ncc(-c2ccc3nccc(-c4ccc(CN5CCCC5)cc4)c3c2)cc1NS(=O)(=O)c1ccc(F)cc1F`, for which the IC50 is 0.0375 µM in test [3], 0.159 µM in test [4] and 0.0188 µM in the test “cells”.
The matching figures for `COc1ncc(-c2ccc3nccc(-c4ccc(C)cc4)c3c2)cc1NS(=O)(=O)c1ccc(F)cc1F`: 1.24 µM, 67 µM and 2.54 µM.
Consider `COc1ncc(-c2ccc3nccc(N4CCCC4)c3c2)cc1NS(=O)(=O)c1ccc(F)cc1F`, for which the IC50 in test [3] was determined as 3.41 µM; in test [4] it was 6.69 µM; in the test “cells” it was 3.32 µM.
In the case of `COc1ncc(-c2ccc3nccc(-c4ccc(CN(C)C)cc4)c3c2)cc1NS(=O)(=O)c1ccc(F)cc1`, the IC50 stood at 0.35 µM in test [1], 3.02 µM in test [2], 0.025 µM in test [3] and 0.024 µM in “cells”.
Regarding `COc1ncc(-c2ccc3nccc(-c4ccc(CN5CCN(C(C)C)CC5)cc4)c3c2)cc1NS(=O)(=O)c1ccc(F)cc1F`, the values for the IC50 (in test [3]; in test [4]; in “cells”) were 0.0019 µM, 0.468 µM and 0.0247 µM, respectively.
On the same counts, the results for `COc1ncc(-c2ccc3nccc(-c4ccc(CN5CCN(CCO)CC5)cc4)c3c2)cc1NS(=O)(=O)c1ccc(F)cc1F` are 0.0248 µM, 0.0212 µM and 0.0217 µM.
The matching figures for `COc1ncc(-c2ccc3nccc(N4CCOCC4)c3c2)cc1NS(=O)(=O)c1ccc(F)cc1F`: 2.4 µM, > 100 µM and 4.43 µM.
The matching figures for `COc1ncc(-c2ccc3nccc(Cl)c3c2)cc1NS(=O)(=O)c1ccc(F)cc1F`: 2.94 µM, > 100 µM and 6.59 µM.
For the compound `COc1ncc(-c2ccc3nccc(-c4ccc(CN5CCN(C)CC5)cc4)c3c2)cc1NS(=O)(=O)c1ccc(F)cc1F`, the 50% inhibitory concentration (IC50) in test [3] turned out to be 0.0133 µM; in test [4], 0.336 µM; in “cells” it was 0.0439 µM.
Take `CCN(CC)Cc1ccc(-c2ccnc3ccc(-c4cnc(OC)c(NS(=O)(=O)c5ccc(F)cc5F)c4)cc23)cc1`: the IC50 in test [3] was 0.022 to 0.0221 µM; in test [4], 4.89 µM; in the test “cells”, 0.005 µM.
The matching figures for `COc1ncc(-c2ccc3nccc(-c4ccc(CN5CCCCC5)cc4)c3c2)cc1NS(=O)(=O)c1ccc(F)cc1F`: 0.0155 µM, 0.032 µM and 0.0341 µM.
The matching figures for `COc1ncc(-c2ccc3nccc(-c4ccc(Cn5ccnc5C)cc4)c3c2)cc1NS(=O)(=O)c1ccc(F)cc1F`: 0.0102 µM, 0.04 µM and 0.0142 µM.
The matching figures for `COc1ncc(-c2ccc3nccc(-c4ccc(Cn5ccnc5)cc4)c3c2)cc1NS(=O)(=O)c1ccc(F)cc1F`: 0.0308 µM, 0.6 µM and 0.0326 µM.

These data come from ChEMBL document CHEMBL3865829 (Eur J Med Chem, 2016).
